Reference: ChEMBL document CHEMBL1151286, “Nostocarboline: isolation and synthesis of a new cholinesterase inhibitor from Nostoc 78-12A” (J Nat Prod, 2005)
“And” between values parts separate entries of the source, which are not always exact repeats. Identical values can stand only once.

Target: Cholinesterase (Equus caballus, UniProt P81908)
Test: Inhibition of horse serum BChE by Ellman's reaction

Cholinesterase, sequence (P81908 whole entry): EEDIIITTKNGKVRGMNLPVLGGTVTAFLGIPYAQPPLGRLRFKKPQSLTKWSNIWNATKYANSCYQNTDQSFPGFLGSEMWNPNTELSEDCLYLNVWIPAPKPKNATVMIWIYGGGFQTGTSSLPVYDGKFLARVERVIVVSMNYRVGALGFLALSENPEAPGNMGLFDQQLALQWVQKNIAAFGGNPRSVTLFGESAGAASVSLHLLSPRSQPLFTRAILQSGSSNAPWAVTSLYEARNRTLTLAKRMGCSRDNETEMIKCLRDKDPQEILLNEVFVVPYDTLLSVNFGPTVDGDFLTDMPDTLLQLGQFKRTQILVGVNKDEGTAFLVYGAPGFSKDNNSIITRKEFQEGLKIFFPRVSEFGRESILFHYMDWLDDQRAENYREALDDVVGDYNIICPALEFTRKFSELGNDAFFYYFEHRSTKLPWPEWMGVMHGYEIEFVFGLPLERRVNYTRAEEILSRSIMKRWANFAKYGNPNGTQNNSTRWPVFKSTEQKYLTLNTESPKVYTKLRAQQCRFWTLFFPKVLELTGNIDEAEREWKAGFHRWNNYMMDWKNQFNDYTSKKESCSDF

SMILES	IC50
C[n+]1ccc2c(c1)[nH]c1ccc(Cl)cc12 [NOSTOCARBOLINE]	19.4 µM and 13.2 µM
C[n+]1ccc2c(c1)[nH]c1ccccc12	11.2 µM
